Assays:
Format in all cases: in vivo
Aphis gossypii [1] = assay: Test Example 1: foliar spray on cucumber seedling inoculated with Aphis gossypii; settings: 144 h, active ingredient 500 ppm, 20 ml sprayed on cucumber seedling, six days after spraying, read-out: control value
Description: On the other hand, on a cucumber seedling (the first true leaf stage) planted in a plastic cup was inoculated with about 30 Aphis gossypii (whole stage), and left for a day. 20 ml of the test drug solution was sprayed on the seedling. Six days after spraying, the number of surviving Aphis gossypii parasitic on the leaves of the cucumber was examined, and the control value was calculated according to the following equation: Control value (%) = {1-(Cb×Tai)/(Cai×Tb)} × 100 [formula] wherein the symbols represent as follows: • Cb: the number of insects in a non-treated section before treatment • Cai: the number of surviving parasitic insects in a non-treated section on observation • Tb: the number of insects in a treated section before treatment • Tai: the number of surviving parasitic insects in a treated section on observation • wherein the non-treated section refers to a section where the test drug solution prepared by diluting the formulation obtained as in Formulation Example 5 but not containing the compound of the present invention with the same amount of water as in the treated section was sprayed.

Aphis gossypii [2] = assay: Test Example 2: drench at foot of cucumber seedling, later inoculated with Aphis gossypii; settings: soil, 144 h, active ingredient 500 ppm, 5 ml drench at foot of cucumber seedling, 7 days at 25°C, then inoculated and kept 6 days, read-out: control value
Description: On the other hand, a cucumber seedling (the second true leaf stage) planted in a plastic cup was drenched at its foot with 5 ml of the test drug solution, and kept in a greenhouse at 25°C for 7 days. On the cucumber leaf surface was inoculated about 30 Aphis gossypii (whole stage), and further kept in the greenhouse for 6 days, then the number of surviving Aphis gossypii parasitic on the leaves of the cucumber was examined, and the control value was calculated according to the following equation: Control value (%) = {1-(Cb×Tai)/(Cai×Tb)} × 100 [formula] wherein the symbols represent as follows: • Cb: the number of insects in a non-treated section before treatment • Cai: the number of surviving parasitic insects in a non-treated section on observation • Tb: the number of insects in a treated section before treatment • Tai: the number of surviving parasitic insects in a treated section on observation • wherein the non-treated section refers to a section where the test drug solution prepared by diluting the formulation obtained as in Formulation Example 5 but not containing the compound of the present invention with the same amount of water as in the treated section was sprayed.

Nilaparvata lugens = assay: Test Example 4: drench at foot of rice seedling, Nilaparvata lugens larvae released; settings: Nilaparvata lugens, soil, 144 h; active ingredient 500 ppm, 5 ml drench at foot of rice seedling, 7 days at 25°C, then third-fourth instar larvae kept 6 days; read-out: control value
Blattella germanica = assay: whole plant or invertebrate; settings: 144 h, read-out: death rate
Description: The formulations of Compounds of Present Invention 1-11, 1-19 and 1-23 as obtained in Formulation Example 5 were diluted with water, so as to have a concentration of the active ingredient of 500 ppm, to prepare a test drug solution.
A filter paper having a diameter of 5.5 cm was spread on the bottom of a polyethylene cup having the same diameter and 0.7 ml of the test drug solution was added dropwise onto the filter paper, and 30 mg of sucrose was uniformly placed as bait. Into the polyethylene cup, 2 male imagoes of Blattella germanica were released, and the cup was sealed with a lid. After 6 days, the life and death of Blattella germanica was examined, the number of dead insects was counted, and the death rate was calculated according to the following equation. Death rate (%) = (Number of dead insects/Number of tested insects) × 100 [formula]

Culex pipiens pallens = assay: Test Example 10: Culex pipiens pallens larvae in treated water; settings: 24 h, active ingredient concentration 3.5 ppm in ion-exchanged water, last-instar larvae, one day later, read-out: death rate
Source text: 20 last-instar larvae of Culex pipiens pallens were released into the solution. One day later, the life and death of the Culex pipiens pallens was examined, and the number of dead insects was counted to calculate the death rate. Death rate (%) = (Number of dead insects/Number of tested insects) × 100 [formula]

Plutella xylostella = assay: Test Example 6: spray on cabbage, Plutella xylostella larvae released; settings: 120 h, active ingredient 500 ppm, 20 mL/cup sprayed on cabbage, second instar larvae, 25°C for 5 days, read-out: death rate
Description: On the other hand, on cabbage at the third leaf stage planted in a polyethylene cup was sprayed, at a rate 20 mL/cup, the test drug solution. After the drug solution was dried, the foliage part was cut off, and then placed in a 50 mL volume cup. Five second instar larvae of Plutella xylostella were released into the cup, and the cup was sealed with a lid. After the cup was kept at 25°C for 5 days, the number of dead insects was counted. The death rate was calculated according to the following equation. Death rate (%) = (Number of dead insects/Number of tested insects) × 100 [formula]

Row | SMILES | mortality at 500 ppm (Aphis gossypii [1]) | mortality at 500 ppm (Aphis gossypii [2]) | mortality at 500 ppm (Nilaparvata lugens) | mortality at 500 ppm (Blattella germanica) | mortality at 3.5 ppm (Culex pipiens pallens) | mortality at 500 ppm (Plutella xylostella)
1 | CCS(=O)(=O)c1cc(C(=O)NC)cnc1-c1nc2cc(C(F)(F)F)cnc2n1C [Compound of Present Invention 1-19] | ≥ 90% | ≥ 90% | ≥ 90% | 100% | ≥ 95% | 
2 | CCN(CC)C(=O)c1cnc(-c2nc3cc(C(F)(F)F)cnc3n2C)c(S(=O)(=O)CC)c1 [Compound of Present Invention 1-11, N,N-diethyl-5-ethylsulfonyl-6-(3-methyl-6-trifluoromethyl-3 H-imidazo[4,5-b]pyridin-2-yl)nicotinamide] |  |  | ≥ 90% | 100% | ≥ 95% | ≥ 80%

From EP2955179A1, “CONDENSED HETEROCYCLIC COMPOUND” (Sumitomo Chemical Company Limited, priority 2013, dated 2014)
